Laboratory results published in patent US7638508B2, “Glucocorticosteroid compound having anti-inflammatory activity” (Glaxo Group Limited, priority 2003, dated 2009).

Tests used:
Format in all cases: cell-based
Progesterone Receptor = molecular target: T1, Progesterone Receptor (Homo sapiens, UniProt P06401); assay: Assay for Progesterone Receptor Activity: alkaline phosphatase upregulation in T47D cells; settings: 24 hours at 37° C.
T1 construct: The human breast cancer cell line T47D has been reported to upregulate an endogenous alkaline phosphatase in response to progestins; endogenous in cells; host or cells: T47D cells
T1 sequence (P06401 1-933): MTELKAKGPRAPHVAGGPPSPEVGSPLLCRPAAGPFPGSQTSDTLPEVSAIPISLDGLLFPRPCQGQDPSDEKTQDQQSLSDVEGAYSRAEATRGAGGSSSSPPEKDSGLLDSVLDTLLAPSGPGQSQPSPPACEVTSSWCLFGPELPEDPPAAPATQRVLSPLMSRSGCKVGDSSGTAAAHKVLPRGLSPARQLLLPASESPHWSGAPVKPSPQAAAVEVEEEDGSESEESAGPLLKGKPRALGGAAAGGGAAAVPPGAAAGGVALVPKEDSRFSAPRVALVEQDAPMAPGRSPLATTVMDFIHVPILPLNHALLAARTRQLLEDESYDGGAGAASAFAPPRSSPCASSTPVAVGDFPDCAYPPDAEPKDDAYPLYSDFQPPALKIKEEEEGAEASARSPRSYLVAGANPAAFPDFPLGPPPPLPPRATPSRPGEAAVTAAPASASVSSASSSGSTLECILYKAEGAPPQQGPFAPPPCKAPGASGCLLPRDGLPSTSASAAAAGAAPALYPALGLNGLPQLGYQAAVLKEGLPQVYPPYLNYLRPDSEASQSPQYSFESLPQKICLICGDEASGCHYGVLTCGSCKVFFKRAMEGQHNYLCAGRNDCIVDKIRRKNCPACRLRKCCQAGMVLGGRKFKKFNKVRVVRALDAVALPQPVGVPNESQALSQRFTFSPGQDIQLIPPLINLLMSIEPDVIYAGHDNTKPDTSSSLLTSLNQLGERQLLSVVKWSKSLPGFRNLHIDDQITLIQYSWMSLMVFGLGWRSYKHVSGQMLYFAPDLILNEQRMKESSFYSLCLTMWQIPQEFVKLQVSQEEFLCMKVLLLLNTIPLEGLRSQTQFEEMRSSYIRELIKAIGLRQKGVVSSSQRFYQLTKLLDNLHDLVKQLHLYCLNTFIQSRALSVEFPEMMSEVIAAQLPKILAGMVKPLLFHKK
Method: Assay for Progesterone Receptor Activity
The human breast cancer cell line T47D has been reported to upregulate an endogenous alkaline phosphatase in response to progestins (Di Lorenzo et al., Cancer Research (1991) 51, 4470-4475. T47D cells were seeded into 96 well plates at a density of 1×10^5 cells per well and grown overnight at 37° C. Steroids were dissolved in DMSO, added to the cells (final DMSO concentration 0.7%), and incubated for 24 hours at 37° C. The cells were then washed with PBS and lysed with RIPA buffer (1% IGEPAL, 0.5% Na deoxycholate, 0.1% SDS in phosphate buffered saline). Alkaline phosphatase activity was measured spectrophotometrically (405 nm) using p-nitrophenylphosphate (1.5 mg/ml) as a substrate dissolved in 1 M diethanolamine, 0.28M NaCl, 0.5 mM MgCl2. Dose response curves were constructed from which EC50 values were estimated.

glucocorticoid receptor [1] = molecular target: T2, glucocorticoid receptor (Homo sapiens, UniProt P04150); assay: MMTV-LTR renilla luciferase reporter assay in A549 cells (direct transactivation of gene expression); settings: 6 hour at 37° C., read-out: maximal response relative to Dexamethasone (100%)
T2 sequence (P04150 1-777): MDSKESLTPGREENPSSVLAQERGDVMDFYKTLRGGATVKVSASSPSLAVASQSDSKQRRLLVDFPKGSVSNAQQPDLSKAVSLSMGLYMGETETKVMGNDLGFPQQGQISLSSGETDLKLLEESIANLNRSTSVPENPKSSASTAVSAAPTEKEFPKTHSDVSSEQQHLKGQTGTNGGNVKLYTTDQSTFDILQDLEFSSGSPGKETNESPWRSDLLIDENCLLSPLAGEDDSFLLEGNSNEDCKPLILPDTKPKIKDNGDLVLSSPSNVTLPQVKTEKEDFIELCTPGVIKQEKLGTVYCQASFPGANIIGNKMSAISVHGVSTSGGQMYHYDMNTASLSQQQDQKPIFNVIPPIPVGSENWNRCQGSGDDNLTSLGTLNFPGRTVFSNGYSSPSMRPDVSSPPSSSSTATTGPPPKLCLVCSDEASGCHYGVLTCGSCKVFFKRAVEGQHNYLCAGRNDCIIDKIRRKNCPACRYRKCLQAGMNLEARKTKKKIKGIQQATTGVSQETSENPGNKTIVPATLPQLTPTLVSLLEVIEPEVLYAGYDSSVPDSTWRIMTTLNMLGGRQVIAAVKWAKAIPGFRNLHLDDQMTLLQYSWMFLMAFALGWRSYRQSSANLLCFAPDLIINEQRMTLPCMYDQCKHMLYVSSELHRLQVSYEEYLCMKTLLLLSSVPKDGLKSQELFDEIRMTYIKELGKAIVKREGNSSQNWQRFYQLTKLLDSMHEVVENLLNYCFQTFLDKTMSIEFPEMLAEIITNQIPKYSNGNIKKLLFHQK
Method: (§1) Pharmacological activity may be assessed in functional in vitro assays of glucocorticoid agonist activity.
The functional assay based on that described by R. J. H. Austin et al., Eur Resp J. (2002), 20, 1386-1392 measures the ability of compounds to directly transactivate gene expression. A549 cells stably transfected with a reporter gene containing the glucocorticoid responsive region of the mouse mammary tumour virus long terminal repeat (MMTV-LTR) coupled to renilla luciferase were treated with test compounds at appropriate doses for 6 hour at 37° C. The amount of luciferase activity present within the cells is then determined by measuring the light emitted following incubation with a suitable substrate.

glucocorticoid receptor [2] = molecular target: T2, glucocorticoid receptor; assay: NF-κB/ELAM promoter sPAP reporter assay in A549 cells, TNF stimulated (transrepressive activity of a glucocorticoid agonist); parameters: A549 cells stably transfected with a reporter gene containing the NF-κB responsive elements; endogenous in cells; host or cells: A549 cells; settings: compound 1 hour at 37° C., then TNF 10 ng/ml for 16 hours, read-out: EC50 (transrepression, NF-κB sPAP reporter)
Method: as §1
The functional assay based on that described by K. P. Ray et al., Biochem J. (1997), 328, 707-715 provides a measure of transrepressive activity of a glucocorticoid agonist. A549 cells stably transfected with a reporter gene containing the NF-κB responsive elements from the ELAM gene promoter coupled to sPAP (secreted alkaline phosphatase) are treated with test compounds at appropriate doses for 1 hour at 37° C. The cells are then stimulated with tumour necrosis factor (TNF, 10 ng/ml) for 16 hours, at which time the amount of alkaline phosphatase produced is measured by a standard colourimetric assay. Dose response curves are constructed from which EC50 values may be estimated.

C[C@@H]1C[C@H]2[C@@H]3C[C@H](F)C4=CC(=O)C=C[C@]4(C)[C@@]3(F)[C@@H](O)C[C@]2(C)[C@@]1(OC(=O)c1ccc(C#N)cc1)C(=O)OCC#N [Example 8, 17α-(4-Cyanobenzoyl)oxy-6α,9α-difluoro-11β-hydroxy-16α-methyl-3-oxo-androsta-1,4-diene-17β-carboxylic Acid Cyanomethyl Ester]
EC50 (Progesterone Receptor): > 100 nM | Emax (glucocorticoid receptor [1]): < 35% | EC50 (glucocorticoid receptor [2]): ≤ 0.1 nM

CSc1ccc(C(=O)O[C@]2(C(=O)OCC#N)[C@H](C)C[C@H]3[C@@H]4C[C@H](F)C5=CC(=O)C=C[C@]5(C)[C@@]4(F)[C@@H](O)C[C@@]32C)s1 [Example 15, 6α,9α-Difluoro-11β-hydroxy-16α-methyl-17α-(5-methylthio-thiophene-2-carbonyl)oxy-3-oxo-androsta-1,4-diene-17β-carboxylic Acid Cyanomethyl Ester]
Emax (glucocorticoid receptor [1]): < 35% | EC50 (glucocorticoid receptor [2]): ≤ 0.1 nM

C[C@@H]1C[C@H]2[C@@H]3C[C@H](F)C4=CC(=O)CC[C@]4(C)[C@@]3(F)[C@@H](O)C[C@]2(C)[C@@]1(OC(=O)C1C(C)(C)C1(C)C)C(=O)OCC#N [Example 18, 6α,9α-Difluoro-11β-hydroxy-16α-methyl-3-oxo-17α-(2,2,3,3-tetramethycyclopropylcarbonyl)oxy-androst-4-ene-17 b-carboxylic Acid Cyanomethyl Ester]
EC50 (Progesterone Receptor): > 100 nM | Emax (glucocorticoid receptor [1]): < 35%

C[C@@H]1C[C@H]2[C@@H]3C[C@H](F)C4=CC(=O)C=C[C@]4(C)[C@@]3(F)[C@@H](O)C[C@]2(C)[C@@]1(OC(=O)C1C(C)(C)C1(Cl)Cl)C(=O)OCC#N (stereo partly drawn) [Example 20, 17α-(2,2-Dichloro-3,3-dimethylclopropylcarbonyl)oxy-6α,9α-difluoro-11β-hydroxy-16α-methyl-3-oxo-androsta-1,4-diene-17β-carboxylic Acid Cyanomethyl Ester]
EC50 (Progesterone Receptor): > 100 nM | Emax (glucocorticoid receptor [1]): < 35% | EC50 (glucocorticoid receptor [2]): ≤ 0.1 nM

C[C@@H]1C[C@H]2[C@@H]3C[C@H](F)C4=CC(=O)C=C[C@]4(C)[C@@]3(F)[C@@H](O)C[C@]2(C)[C@@]1(OC(=O)c1ccc(S(C)(=O)=O)s1)C(=O)SCC#N [Example 23, 6α,9α-Difluoro-11β-hydroxy-16α-methyl-17α-(5-methylsulphonyl-thiophene-2-carbonyl)oxy-3-oxo-androsta-1,4-diene-17β-carbothioic Acid S-cyanomethyl Ester]
EC50 (Progesterone Receptor): > 100 nM | Emax (glucocorticoid receptor [1]): < 35%

C[C@@H]1C[C@H]2[C@@H]3C[C@H](F)C4=CC(=O)C=C[C@]4(C)[C@@]3(F)[C@@H](O)C[C@]2(C)[C@@]1(OC(=O)c1ccc(C(F)(F)F)o1)C(=O)SCC#N [Example 24, 6α,9α-Difluoro-11β-hydroxy-16α-methyl-3-oxo-17α-(5-trifluoromethyl-furan-2-carbonyl)oxy-androsta-1,4-diene-17β-carbothioic Acid S-cyanomethyl Ester]
EC50 (Progesterone Receptor): > 100 nM | Emax (glucocorticoid receptor [1]): < 35%

C[C@@H]1C[C@H]2[C@@H]3C[C@H](F)C4=CC(=O)C=C[C@]4(C)[C@@]3(F)[C@@H](O)C[C@]2(C)[C@@]1(OC(=O)c1cccc(SC(F)F)c1)C(=O)SCC#N [Example 25, 6α,9α-Difluoro-17α-(3-(difluoromethylthio)benzoyl)oxy-11β-hydroxy-16α-methyl-3-oxo-androsta-1,4-diene-17β-carbothioic Acid S-cyanomethyl Ester]
EC50 (Progesterone Receptor): > 100 nM | Emax (glucocorticoid receptor [1]): < 35%
